According to patent publication US20220202940A1, “METHOD OF STABILIZING A DIALYSIS SOLUTION” (Fresenius Medical Care Deutschland GmbH, priority 2018, published 2022):

Details: 0.1 mmol/l orthophosphate added to DUOSOL 4551 after the start of the precipitation, 40° C.
Description: The pH at which a significant precipitation of calcium carbonate starts is a criterion for the stability of the solution and is subsequently called pHmax. […] The time at which the significant precipitation of calcium carbonate starts is subsequently called tG to represent the “time of germination”.
The stabilizing effect of a subsequent addition of phosphate or of a phosphate ester to existing dialysis solutions was examined using the rapid degassing method in a carousel setup. THz rapid degassing method in this variant allows an accelerated aging of dialysis solutions by degassing the CO2 from the bicarbonate buffer. The degassing of CO2 that normally occur slowly during the life of the products can be simulated within a few hours with this experiment setup.
Three separate experiments are carried out for each data point and the mean value is used.
That is, after a specific time period, 2.5 ml of a parent solution having 100 mmol/l glycerophosphate is added to the flasks containing 250 ml DUOSOL 4551, which results in a concentration of 1.0 mmol/l of glycerophosphate in the flask.

O=P(O)(O)O [orthophosphate]
dissolution of existing calcium carbonate precipitate: not observed
effect on precipitation of calcium carbonate: inhibiting effect
